Tested on: VAChT KD^HOM mice
Assay: Grip force test in VAChT KD^HOM mice
Assay type: in vivo
Settings: pyridostigmine i.p. 1 mg/kg, 30 min prior to the test, FIG. 4B, p<0.05
Method: To evaluate whether the alterations detected in neuromuscular transmission may affect neuromuscular function, we tested the performance of wild-type and mutant mice in motor tasks (FIG. 4). The wire-hang experiments were conducted as described (Sango et al. (1996) Mice lacking both subunits of lysosomal beta-hexosaminidase display gangliosidosis and mucopolysaccharidosis. Nat. Genet. 14:348-352) and time spent hanging upside down was determined with a cut-off time of 60 sec.
To measure grip force, we used a custom built force transducer connected to a small support that could be grasped by the mouse as described (Fowler et al. (2002) Motor and associative deficits in D2 dopamine receptor knockout mice. Int. J. Dev. Neurosci. 20:309-321). Five tests were performed per mouse with a maximum period of 50 sec for each animal over two different days. The force transducer was coupled to a computer and a routine was developed to record the maximal grip-force exerted. By comparison, VAChT KD^HET mice present no deficit in neuromuscular function as assessed in this test. Importantly, reduced grip-strength in VAChT KD^HOM mice was improved by prior injection of one of three cholinesterase inhibitors: pyridostigmine (i.p. 1 mg/kg), galantamine (s.c. 1 mg/kg) or physostigmine (i.p., 0.3 mg/kg), (FIG. 4B, F(3,47)=8.323 p<0.05). […]

Structure (SMILES): CN(C)C(=O)Oc1ccc[n+](C)c1 [pyridostigmine]
- grip-strength (maximal grip-force): improved

Reference: patent publication US9139638B2, “Mouse model of cholinergic dysfunction to evaluate cognitive enhancers and drugs that improve myasthenia” (priority 2006, dated 2015)
